Columns and labels:
[1] = The drug is tested on Bifidobacterium breve strain: DSM20213 for biotransformation. The drug concentrations were measured before and after a 12-h incubation by liquid-chromatography-coupled mass spectrometry (LC–MS); conditions: 2 µM
[2] = The drug is tested on Bifidobacterium longum subsp. Infantis strain: CCUG52486 for biotransformation. The drug concentrations were measured before and after a 12-h incubation by liquid-chromatography-coupled mass spectrometry (LC–MS); conditions: 2 µM
[3] = The drug is tested on Collinsella intestinalis strain: DSM13280 for biotransformation. The drug concentrations were measured before and after a 12-h incubation by liquid-chromatography-coupled mass spectrometry (LC–MS); conditions: 2 µM
[4] = The drug is tested on Bacteroides dorei strain: DSM17855 for biotransformation. The drug concentrations were measured before and after a 12-h incubation by liquid-chromatography-coupled mass spectrometry (LC–MS); conditions: phocaeicola dorei, 2 µM
[5] = The drug is tested on Bacteroides finegoldii strain: DSM17565 for biotransformation. The drug concentrations were measured before and after a 12-h incubation by liquid-chromatography-coupled mass spectrometry (LC–MS); conditions: 2 µM
[6] = The drug is tested on Bacteroides ovatus strain: ATCC8483 for biotransformation. The drug concentrations were measured before and after a 12-h incubation by liquid-chromatography-coupled mass spectrometry (LC–MS); conditions: 2 µM
[7] = The drug is tested on Bacteroides pectinophilus strain: ATCC43243 for biotransformation. The drug concentrations were measured before and after a 12-h incubation by liquid-chromatography-coupled mass spectrometry (LC–MS); conditions: 2 µM
[8] = The drug is tested on Bacteroides sp. WH2 strain: WH2 for biotransformation. The drug concentrations were measured before and after a 12-h incubation by liquid-chromatography-coupled mass spectrometry (LC–MS); conditions: bacteroides sp. wh2, 12 h, 2 µM
[9] = The drug is tested on Anaerococcus hydrogenalis strain: DSM7454 for biotransformation. The drug concentrations were measured before and after a 12-h incubation by liquid-chromatography-coupled mass spectrometry (LC–MS); conditions: 2 µM
[10] = The drug is tested on Blautia hansenii strain: DSM20583 for biotransformation. The drug concentrations were measured before and after a 12-h incubation by liquid-chromatography-coupled mass spectrometry (LC–MS); conditions: 2 µM
[11] = The drug is tested on Clostridium sp. strain: fecal isolate for biotransformation. The drug concentrations were measured before and after a 12-h incubation by liquid-chromatography-coupled mass spectrometry (LC–MS); conditions: 2 µM
[12] = The drug is tested on Eubacterium rectale strain: ATCC33656 for biotransformation. The drug concentrations were measured before and after a 12-h incubation by liquid-chromatography-coupled mass spectrometry (LC–MS); conditions: agathobacter rectalis, 2 µM
[13] = The drug is tested on Ruminococcus torques strain: ATCC27756 for biotransformation. The drug concentrations were measured before and after a 12-h incubation by liquid-chromatography-coupled mass spectrometry (LC–MS); assay type: ADME; design: dose 2 uM, timepoint 0 vs 12 hours; conditions: 2 µM
[14] = The drug is tested on Providencia rettgeri strain: DSM1131 for biotransformation. The drug concentrations were measured before and after a 12-h incubation by liquid-chromatography-coupled mass spectrometry (LC–MS); assay type: ADME; design: dose 2 uM, timepoint 0 vs 12 hours; conditions: 2 µM
[15] = bacteroides eggerthii, 12 h, 2 µM
Description: The drug is tested on Bacteroides eggerthii strain: DSM20697 for biotransformation. The drug concentrations were measured before and after a 12-h incubation by liquid-chromatography-coupled mass spectrometry (LC–MS)

[16] = bacteroides stercoris, 12 h, 2 µM
Description: The drug is tested on Bacteroides stercoris strain: ATCC43183 for biotransformation. The drug concentrations were measured before and after a 12-h incubation by liquid-chromatography-coupled mass spectrometry (LC–MS)

[17] = bacteroides thetaiotaomicron, 12 h, 2 µM
Description: The drug is tested on Bacteroides thetaiotaomicron strain: 7330 for biotransformation. The drug concentrations were measured before and after a 12-h incubation by liquid-chromatography-coupled mass spectrometry (LC–MS)

[18] = parabacteroides distasonis, 12 h, 2 µM
Description: The drug is tested on Parabacteroides distasonis strain: ATCC8503 for biotransformation. The drug concentrations were measured before and after a 12-h incubation by liquid-chromatography-coupled mass spectrometry (LC–MS)

[19] = limosilactobacillus reuteri cf48-3a, 12 h, 2 µM
Description: The drug is tested on Lactobacillus reuteri CF48-3A strain: BEI HM-102 for biotransformation. The drug concentrations were measured before and after a 12-h incubation by liquid-chromatography-coupled mass spectrometry (LC–MS)

[20] = The drug is tested on Anaerotruncus colihominis strain: DSM17241 for biotransformation. The drug concentrations were measured before and after a 12-h incubation by liquid-chromatography-coupled mass spectrometry (LC–MS); conditions: 2 µM

Structure (SMILES) | Bacterial Biotransformation [1] | Bacterial Biotransformation [2] | Bacterial Biotransformation [3] | Bacterial Biotransformation [4] | Bacterial Biotransformation [5] | Bacterial Biotransformation [6] | Bacterial Biotransformation [7] | Bacterial Biotransformation [8] | Bacterial Biotransformation [9] | Bacterial Biotransformation [10] | Bacterial Biotransformation [11] | Bacterial Biotransformation [12] | Bacterial Biotransformation [13] | Bacterial Biotransformation [14] | Bacterial Biotransformation [15] | Bacterial Biotransformation [16] | Bacterial Biotransformation [17] | Bacterial Biotransformation [18] | Bacterial Biotransformation [19] | Bacterial Biotransformation [20]
CC(CCc1ccccc1)NCC(O)c1ccc(O)c(C(N)=O)c1 (configuration not stated) [LABETALOL] | Compound NOT metabolized | Compound NOT metabolized | Compound NOT metabolized | Compound NOT metabolized | Compound NOT metabolized | Compound NOT metabolized | Compound NOT metabolized | Compound NOT metabolized | Compound NOT metabolized | Compound NOT metabolized | Compound NOT metabolized | Compound NOT metabolized | Compound NOT metabolized | Compound NOT metabolized | Compound NOT metabolized | Compound NOT metabolized | Compound NOT metabolized | Compound NOT metabolized | Compound NOT metabolized | –
O=C(O)CCc1nc(-c2ccccc2)c(-c2ccccc2)o1 [OXAPROZIN] | Compound NOT metabolized | Compound NOT metabolized | Compound NOT metabolized | Compound metabolized | Compound metabolized | Compound NOT metabolized | Compound NOT metabolized | Compound metabolized | Compound NOT metabolized | Compound metabolized | Compound NOT metabolized | Compound NOT metabolized | Compound NOT metabolized | Compound NOT metabolized | Compound NOT metabolized | Compound NOT metabolized | Compound metabolized | Compound metabolized | Compound NOT metabolized | Compound NOT metabolized
COc1ccccc1N1CCN(CC(O)COc2cccc3ccccc23)CC1 (configuration not stated) [NAFTOPIDIL] | Compound NOT metabolized | Compound NOT metabolized | Compound NOT metabolized | Compound NOT metabolized | Compound NOT metabolized | Compound NOT metabolized | Compound NOT metabolized | Compound NOT metabolized | Compound NOT metabolized | Compound NOT metabolized | Compound NOT metabolized | Compound NOT metabolized | Compound NOT metabolized | Compound NOT metabolized | Compound NOT metabolized | Compound NOT metabolized | Compound NOT metabolized | Compound NOT metabolized | Compound NOT metabolized | Compound NOT metabolized
CN1CCC(=C2c3ccccc3CC(=O)c3sccc32)CC1.O=C(O)/C=C/C(=O)O [KETOTIFEN FUMARATE] | Compound NOT metabolized | Compound NOT metabolized | Compound NOT metabolized | Compound NOT metabolized | Compound NOT metabolized | Compound NOT metabolized | Compound NOT metabolized | Compound NOT metabolized | Compound NOT metabolized | Compound NOT metabolized | Compound NOT metabolized | Compound NOT metabolized | Compound NOT metabolized | Compound NOT metabolized | Compound NOT metabolized | Compound NOT metabolized | Compound NOT metabolized | Compound NOT metabolized | Compound NOT metabolized | Compound NOT metabolized
CN1CCN(C2=Nc3ccccc3Oc3ccc(Cl)cc32)CC1.O=C(O)CCC(=O)O [LOXAPINE SUCCINATE] | Compound NOT metabolized | Compound NOT metabolized | Compound NOT metabolized | Compound NOT metabolized | Compound NOT metabolized | Compound NOT metabolized | Compound NOT metabolized | Compound NOT metabolized | Compound NOT metabolized | Compound NOT metabolized | Compound NOT metabolized | Compound NOT metabolized | Compound NOT metabolized | Compound NOT metabolized | Compound NOT metabolized | Compound NOT metabolized | Compound NOT metabolized | Compound NOT metabolized | Compound NOT metabolized | Compound NOT metabolized
CC(=O)OCC(CCn1cnc2cnc(N)nc21)COC(C)=O [FAMCICLOVIR] | Compound NOT metabolized | Compound metabolized | Compound NOT metabolized | Compound metabolized | Compound metabolized | Compound metabolized | Compound NOT metabolized | Compound metabolized | Compound NOT metabolized | Compound NOT metabolized | Compound NOT metabolized | Compound NOT metabolized | Compound NOT metabolized | Compound NOT metabolized | Compound metabolized | Compound metabolized | Compound metabolized | Compound metabolized | Compound NOT metabolized | Compound NOT metabolized
CC(=O)OCC(=O)[C@@]1(OC(C)=O)[C@@H](C)C[C@H]2[C@@H]3C[C@H](F)C4=CC(=O)C=C[C@]4(C)[C@@]3(F)[C@@H](O)C[C@@]21C [DIFLORASONE DIACETATE] | Compound NOT metabolized | Compound metabolized | Compound NOT metabolized | Compound metabolized | Compound metabolized | Compound metabolized | Compound NOT metabolized | Compound metabolized | Compound NOT metabolized | Compound metabolized | Compound metabolized | Compound NOT metabolized | – | Compound metabolized | Compound metabolized | Compound metabolized | Compound metabolized | Compound metabolized | Compound NOT metabolized | Compound metabolized
COC1=C(OC)C(=O)C(CCCCCCCCCCO)=C(C)C1=O [IDEBENONE] | Compound NOT metabolized | Compound metabolized | – | Compound NOT metabolized | Compound NOT metabolized | Compound NOT metabolized | Compound NOT metabolized | Compound NOT metabolized | Compound NOT metabolized | Compound NOT metabolized | Compound NOT metabolized | Compound NOT metabolized | Compound NOT metabolized | Compound NOT metabolized | Compound NOT metabolized | Compound NOT metabolized | Compound NOT metabolized | Compound NOT metabolized | Compound NOT metabolized | Compound NOT metabolized

From ChEMBL document CHEMBL5303573, “Mapping human microbiome drug metabolism by gut bacteria and their genes” (Nature, 2019)
